Results: US7074834B2, “Long acting, reversible veterinary sedative and analgesic and method of use” (University of Kentucky Foundation, priority 2000, dated 2006)

Columns and labels:
Format in all cases: in vivo
[1] = test system: horse; experiment: Sedation / head ptosis response in the standing horse after intravenous administration
Description: As used herein by “rapid onset” is meant to include the time interval from administration of the active, e.g., guanabenz acetate, until the drug begins to take effect and produce the intended response, e.g., sedation and/or tranquilization and /or analgesia. For the compositions disclosed herein, this time interval typically ranges from between about 1 minute to about 30 minutes. As one of skill in the art can appreciate, the length of time for onset of action can vary, e.g., depending upon the route of administration, the species, age, size, and health status of the animal and the like. In the adult horse, for example, the clinical signs of sedation will begin to appear within 1–3 minutes following a single intravenous administration of about 100 mg of guanabenz or guanabenz acetate.
The term “analgesia” or “analgesic” is meant to include any conscious relief from a painful stimulus in an animal. In general, an analgesic is an agent that alleviates pain or reduces the sensation of pain without causing loss of consciousness. The term “long lasting” is generally meant to include the time interval from the onset of effect of the active until the effect has waned to a subclinical level. Thus, the establishment of this time interval is subjective but is readily ascertainable in the hands of the skilled artisan. Of course the duration of action of the active can vary, e.g., depending upon the route of administration, the species, age, size, and health status of the animal and the like. In the adult horse, for example, the clinical signs of sedation will begin to appear within 1–3 minutes following a single intravenous administration of about 100 mg of guanabenz or guanabenz acetate and the duration of action is up to about 4 hours.
In one embodiment, the present invention provides the surprising discovery that guanabenz acetate, after a single intravenous dose of about 0.2 milligrams per kilogram per horse, produces a rapid onset of sedation and/or, tranquilization and/or analgesia in the standing horse.
The solid circles (● - - - ●) show head ptosis measured as cm above ground level after rapid intravenous administration of guanabenz.

[2] = Blood glucose, urine glucose, urine production and urine specific gravity after intravenous administration; conditions: horse about 1000 lbs, 0.2 mg/kg (100 mg) intravenously
Description: Referring now to FIG. 3, a horse (about 1000 lbs) was administered guanabenz at a dose of 0.2 mg/kg (100 mg) intravenously at time point 0. […] The solid circles (● - - - ●) show blood glucose levels after rapid intravenous administration of guanabenz. Note also the increase in urine glucose levels after the administration of guanabenz. The open circles (◯-◯) show the corresponding urinary concentrations of glucose after this administration.
In FIG. 3b, note how the dose of 100 mg of guanabenz yields an increase in urine production as indicated by the increase in volume of urine collected. The solid circles (● - - - ●) show volume of urinary output after rapid intravenous administration of guanabenz. Note also in FIG. 3c, the decrease in specific gravity of the urine after the administration of the guanabenz. The solid circles (● - - - ●) show the corresponding urinary specific gravity values after this administration.

[3] = test system: horse; experiment: Heat lamp equine analgesia model; conditions: horse 1000 lbs, 0.2 mg/kg (100 mg) intravenously
Description: A horse (1000 lbs) in was administered guanabenz at a dose of 0.2 mg/kg (100 mg) intravenously at time point 0 (see FIG. 2). […] Note also that this response is maintained at full intensity for approximately 30 minutes and declines thereafter, and returns to control values by 6 hrs post administration. The solid circles (● - - - ●) show the increasing control latency in our heat lamp equine analgesia model after administration of guanabenz at indicated zero time.

[4] = standing horse, single intravenous dose of about 0.2 mg/kg

N=C(N)N/N=C/c1c(Cl)cccc1Cl [guanabenz acetate]
duration for which sedation and head ptosis are maintained [1, 4]: up to four hours | onset of profound sedation and head ptosis [1, 4]: within one minute

N=C(N)N/N=C/c1c(Cl)cccc1Cl [guanabenz, 1-[2,6-dichlorobenzylidine-amino]-3-guanidine]
head ptosis response (cm above ground level), FIG. 1 ([1]; horse about 1000 lbs, 0.2 mg/kg (100 mg) intravenously): very rapid onset | blood glucose levels, FIG. 3a [2]: transient increase | specific gravity of the urine, FIG. 3c [2]: decrease | urine glucose levels, FIG. 3a [2]: increase | urine production (volume of urine collected), FIG. 3b [2]: increase | onset of analgesia response (desensitization to the heat lamp), FIG. 2 [3]: very rapid onset | time for which the analgesia response is maintained at full intensity [3]: approximately 30 minutes | time at which the analgesia response returns to control values ([3]; post administration): ≤ 6 h

COC(=O)[C@@H]1[C@H]2C[C@H]3c4[nH]c5ccccc5c4CCN3C[C@@H]2CC[C@@H]1O [yohimbine]
reversal of guanabenz tranquilization and sedation (head ptosis), FIG. 1 ([1]; horse given guanabenz 100 mg i.v., yohimbine 60 mg intravenously): rapid reversal | reversal of guanabenz acetate sedation and head ptosis response ([1]; horse, guanabenz acetate about 0.2 mg/kg i.v., antagonist given intravenously): rapidly reversible
